Earlier results as cited in paper PMC12150326 (The Journal of Organic Chemistry, 2025).
Several values for one entry are separate records, joined by “and”; a condition that tells them apart may be missing. Equal entries are not always repeated. Where two headings read alike, the source gives them in different places.

Experiments:
Set-up in all cases: method as in NCI-60 database
HCT-15 = HCT-15 ref NCI-60 database, cited from earlier work
LOX IMVI = LOX IMVI ref NCI-60 database, cited from earlier work
SK-MEL-28 = SK-MEL-28 ref NCI-60 database, cited from earlier work
CAKI-1 = CAKI-1 ref NCI-60 database, cited from earlier work
MDA-MB-231/ATCC = MDA-MB-231/ATCC ref NCI-60 database, cited from earlier work
T-47D = T-47D ref NCI-60 database, cited from earlier work
LXFL 529 = LXFL 529 ref NCI-60 database, cited from earlier work
KM20L2 = KM20L2 ref NCI-60 database, cited from earlier work
XF 498 = XF 498 ref NCI-60 database, cited from earlier work
M19-MEL = M19-MEL ref NCI-60 database, cited from earlier work

For `COc1cc2c(c(OC)c1OC)-c1ccc(OC)c(=O)cc1[C@@H](NC(C)=O)CC2` [Colchicine, (−)-Colchicine], the GI50 (HCT-15) is listed as 0.21 µM, the Log10GI50 (HCT-15) is listed as -6.68 Molar and the Log10LC50 (HCT-15; listed as 757/9) is listed as -5.60 Molar. The Log10LC50 (HCT-15; listed as 757/21) was greater than -4.00 Molar, the GI50 (LOX IMVI) was 0.019 µM and the Log10GI50 (LOX IMVI) was -7.71 Molar. For the same molecule, the Log10GI50 (LOX IMVI; listed as 757/1) was -7.11 Molar, the Log10GI50 (SK-MEL-28; listed as 757/1) was -7.02 Molar and the Log10LC50 (SK-MEL-28; listed as 757/9) was -4.44 Molar. For the same molecule, the Log10TGI (SK-MEL-28; listed as 757/9) was -4.95 Molar, the Log10LC50 (SK-MEL-28; listed as 757/21) was greater than -4.00 Molar and the Log10TGI (SK-MEL-28; listed as 757/21) was greater than -4.00 Molar. The Log10LC50 (CAKI-1) was greater than -4.00 Molar, the Log10GI50 (CAKI-1; listed as 757/1) was less than -8.00 Molar and the Log10TGI (CAKI-1; listed as 757/1) was greater than -4.00 Molar. The Log10GI50 (CAKI-1; listed as 757/9) was -6.57 Molar, the Log10TGI (CAKI-1; listed as 757/9) was -6.69 Molar and the GI50 (MDA-MB-231/ATCC) was 7.08 µM. For the same molecule, the Log10GI50 (MDA-MB-231/ATCC) was -5.15 Molar, the Log10LC50 (MDA-MB-231/ATCC) was greater than -4.00 Molar and the Log10TGI (MDA-MB-231/ATCC) was greater than -4.00 Molar. For the same molecule, the Log10GI50 (MDA-MB-231/ATCC; listed as 757/9) was < -8.00 Molar and -7.78 Molar, the Log10GI50 (MDA-MB-231/ATCC; listed as 757/21) was -5.15 Molar and the GI50 (T-47D) was 75.7 µM. For the same molecule, the Log10GI50 (T-47D) was -4.12 Molar, the Log10LC50 (T-47D) was greater than -4.00 Molar and the Log10TGI (T-47D) was greater than -4.00 Molar. The Log10GI50 (T-47D; listed as 757/9) was greater than -4.00 Molar, the Log10GI50 (T-47D; listed as 757/21) was -4.21 Molar and the Log10LC50 (LXFL 529) was greater than -4.00 Molar. The Log10TGI (LXFL 529) was greater than -4.00 Molar, the Log10GI50 (LXFL 529; listed as 757/21) was < -8.00 Molar and -7.80 Molar and the Log10GI50 (KM20L2; listed as 757/1) was < -8.00 Molar and -7.72 Molar. For the same molecule, the Log10LC50 (KM20L2; listed as 757/1) was -7.10 Molar, the Log10GI50 (KM20L2; listed as 757/21) was -7.77 Molar and the Log10LC50 (KM20L2; listed as 757/21) was -7.19 Molar. For the same molecule, the Log10TGI (KM20L2; listed as 757/21) was -7.48 Molar, the Log10LC50 (XF 498) was greater than -4.00 Molar and the Log10TGI (XF 498; listed as 757/1) was -4.41 Molar. For the same molecule, the Log10LC50 (M19-MEL) was greater than -4.00 Molar, the Log10TGI (M19-MEL) was greater than -4.00 Molar and the Log10GI50 (M19-MEL; listed as 757/21) was less than -8.00 Molar.
